ChEMBL document CHEMBL5465560, “Selectivity Literature for EUbOPEN Chemogenomic Library” (2024)
Substitutions are numbered along the chain they refer to.

Key:
Settings in all cases: at 100 nM
[1] = target: Receptor-type tyrosine-protein kinase FLT3 (Homo sapiens) (UniProt P36888); assay: (§1) Selectivity interaction (KinomeScan (DiscoverX)) EUB0000695a FLT3
[2] = tested on: T1, Receptor-type tyrosine-protein kinase FLT3 (Homo sapiens), P36888 [D835Y]; assay: as §1
T1 sequence (whole entry): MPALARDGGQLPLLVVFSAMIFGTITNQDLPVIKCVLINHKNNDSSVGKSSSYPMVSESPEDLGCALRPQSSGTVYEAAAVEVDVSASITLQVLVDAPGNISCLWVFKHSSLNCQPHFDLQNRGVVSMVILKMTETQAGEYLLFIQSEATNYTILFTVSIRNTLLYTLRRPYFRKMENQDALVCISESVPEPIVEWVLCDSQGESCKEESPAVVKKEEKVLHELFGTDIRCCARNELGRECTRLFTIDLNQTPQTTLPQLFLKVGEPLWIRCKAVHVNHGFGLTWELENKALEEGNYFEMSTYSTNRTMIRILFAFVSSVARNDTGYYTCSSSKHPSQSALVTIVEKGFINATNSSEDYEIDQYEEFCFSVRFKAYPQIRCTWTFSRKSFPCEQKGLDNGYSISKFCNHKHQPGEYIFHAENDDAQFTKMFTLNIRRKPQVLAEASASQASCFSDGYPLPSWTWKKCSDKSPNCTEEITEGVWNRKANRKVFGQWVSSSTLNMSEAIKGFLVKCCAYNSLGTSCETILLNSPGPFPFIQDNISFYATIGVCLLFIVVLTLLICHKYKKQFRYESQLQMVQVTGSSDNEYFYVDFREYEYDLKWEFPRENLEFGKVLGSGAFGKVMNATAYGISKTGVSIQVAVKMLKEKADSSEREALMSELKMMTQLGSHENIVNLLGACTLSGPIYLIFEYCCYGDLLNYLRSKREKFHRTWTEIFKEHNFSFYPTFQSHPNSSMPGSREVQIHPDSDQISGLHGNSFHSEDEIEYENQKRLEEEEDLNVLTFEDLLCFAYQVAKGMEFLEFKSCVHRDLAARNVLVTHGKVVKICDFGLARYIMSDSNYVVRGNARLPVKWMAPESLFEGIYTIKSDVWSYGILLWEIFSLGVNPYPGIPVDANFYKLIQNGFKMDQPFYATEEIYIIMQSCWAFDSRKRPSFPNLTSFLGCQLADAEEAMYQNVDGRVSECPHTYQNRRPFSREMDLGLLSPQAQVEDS

[3] = tested on: T2, Receptor-type tyrosine-protein kinase FLT3 (Homo sapiens), P36888 [D835H]; assay: as §1
T2 sequence (whole entry): T1 sequence (whole entry) with Y835H

[4] = tested on: T3, Receptor-type tyrosine-protein kinase FLT3 (Homo sapiens), P36888 [D835V]; assay: as §1
T3 sequence (whole entry): T1 sequence (whole entry) with Y835V

Measured: % of control

Cc1cc(F)c(C(=O)Nc2cccc(-c3nncn3C(C)C)n2)cc1-n1cnc(C2CC2)c1
100%: all assays above
